Assay results as given in publication PMC11879280, “Antimicrobial activity of peptoids against Metallo-β-lactamase-producing Klebsiella pneumoniae, Acinetobacter baumannii, Pseudomonas aeruginosa, and other WHO priority pathogens, including Candida auris” (Journal of Applied Microbiology, 2025).
In brackets after ≈: the same amount, converted by molar mass. Read-outs that look alike come from different tables or passages of the source. Each block holds one compound with its values, some of them ahead of it.

Columns and labels:
[1] = test system: C. auris CBS 10913; test: microbe, parasite or virus in culture; format: cell-based, Candida auris; conditions: C. auris CBS 10913
Method: Amphotericin B was tested in parallel as a positive control (Ramesh et al. [2023]).

[2] = test system: C. auris CBS12373; test: Broth microdilution MIC; format: cell-based, Candida auris; conditions: for MIC against C. auris / MIC: CBS 12 373; for MIC against C. auris: RPMI 1640 with MOPS, 5 × 10^3 CFU ml^−1, ≥90% reduction (≥50% for fluconazole); for MIC: value in brackets, read-out: MIC against C. auris
[3] = test system: C. auris CBS10913; test: microbe, parasite or virus in culture; conditions: Candidozyma auris, read-out: MIC against C. auris
[4] = test system: C. auris CBS10913; conditions: CBS 10 913; RPMI 1640 with MOPS, 5 × 10^3 CFU ml^−1; ≥90% reduction (≥50% for fluconazole)
[5] = test system: C. auris CBS12373 biofilm; test: Initial biofilm inhibition, MTT reduction assay; format: cell-based, Candida auris
[6] = test system: C. auris CBS12373 biofilm; format: cell-based, Candida auris; conditions: for Mature biofilm inhibition, blank corrected 570 nm, av. of readings: MTT absorbance
Method: To assess disruption of mature biofilms, 2 × 10^5 cells were cultured for 2 h in 96-well flat bottom microtiter plates at 37°C, washed, then incubated for 48 h in fresh media to form mature biofilm. […] For each activity test, the metabolic activities of the yeast cells in biofilms were measured by MTT reduction assay after washing the disrupted biofilm with PBS (Srivastava and Ahmad [2020]).

[7] = test system: C. auris CBS12373; test: Checkerboard microdilution synergy test; format: cell-based, Candida auris
Method: (§1) The checkerboard microdilution test was performed to determine the fractional inhibitory concentration (FIC) of selected antimicrobials and assess whether the combination had synergistic, antagonistic, or indifferent effects (Anon [2016]) against strains of K. pneumoniae or C. auris. […] Additionally, a strain susceptible to ciprofloxacin was tested to observe the outcome of its combination with TM8 as a representative case from susceptible isolates. […] Then, 10 µl of bacteria (5 × 10^6 CFU ml^−1) or C. auris (2.5 × 10^4 CFU ml^−1) were added to each well, except for the sterility control well. […] The sterility control wells contained only MHB (or RPMI in case of C. auris), and the growth control contained 110 µl of microbial inoculum with no antimicrobials. Subsequently, the plates were incubated for 18- 24 hours at 36 ± 1 °C.
(§2) The FIC for each combination interaction was calculated as follows:
(§3) Then, the summation of FIC (ƩFIC) was calculated for each antimicrobial combination as follows: ƩFIC = FICA + FICB. The results were interpretated as follows: Synergy if ƩFIC ≤ 0.5; Additive if 0.5<ƩFIC ≤ 1; Indifference if […] ≤ 4; and Antagonism if ƩFIC > 4 (Odds [2003]). All antimicrobial synergy experiments were repeated in at least two independent runs.

[8] = test system: C. auris CBS10913; test: Checkerboard microdilution synergy test; format: cell-based, Candida auris
Method: as §1, §2, §3

[9] = test system: C. auris CBS12373 biofilm; test: Anti-adherence (biofilm prevention), MTT reduction assay; format: cell-based, Candida auris
Method: Finally, 3-(4,5-Dimethylthiazol 2-yl)-2,5-diphenyltetrazolium bromide (MTT) reduction assay was performed to observe the metabolic activities of C. auris.

[10] = test system: A. baumannii 005; test: MIC Test Strip MBL (imipenem, imipenem with EDTA); format: cell-based; conditions: Acinetobacter baumannii, Mueller–Hinton agar, 20 h, 37°C, read-out: Imipenem IMI (MIC, MBL strip)
Method: (§4) The test was performed as per the manufacturer’s instructions. Briefly, the strips were applied to a lawn culture of bacteria maintained at 1.5 × 10^8 CFU ml^−1 on Mueller–Hinton agar (Oxoid, UK) and incubated for 20 h at 37°C.

[11] = test system: P. aeruginosa 33; test: MIC Test Strip MBL (imipenem, imipenem with EDTA); format: cell-based; conditions: Pseudomonas aeruginosa, Mueller–Hinton agar, 20 h, 37°C, read-out: Imipenem IMI (MIC, MBL strip)
Method: as §4

[12] = test system: P. aeruginosa AR-1270; test: MIC Test Strip MBL (imipenem, imipenem with EDTA); format: cell-based; conditions: Pseudomonas aeruginosa, AR1270, Mueller–Hinton agar, 20 h, 37°C, read-out: Imipenem IMI (MIC, MBL strip)
Method: as §4

[13] = test system: A. baumannii 006; test: MIC Test Strip MBL (imipenem, imipenem with EDTA); format: cell-based; conditions: Acinetobacter baumannii, Mueller–Hinton agar, 20 h, 37°C, read-out: Imipenem IMI (MIC, MBL strip)
Method: as §4

[14] = test system: K. pneumoniae JIE2709; test: MIC Test Strip MBL (imipenem, imipenem with EDTA); format: cell-based; conditions: Klebsiella pneumoniae, Mueller–Hinton agar, 20 h, 37°C, read-out: Imipenem IMI (MIC, MBL strip)
Method: as §4

[15] = test system: K. pneumoniae JIE2713; test: MIC Test Strip MBL (imipenem, imipenem with EDTA); format: cell-based; conditions: Klebsiella pneumoniae, Mueller–Hinton agar, 20 h, 37°C, read-out: Imipenem IMI (MIC, MBL strip)
Method: as §4

[16] = test system: A. baumannii 007; test: MIC Test Strip MBL (imipenem, imipenem with EDTA); format: cell-based; conditions: Acinetobacter baumannii, Mueller–Hinton agar, 20 h, 37°C, read-out: Imipenem IMI (MIC, MBL strip)
Method: as §4

[17] = test system: A. baumannii 008; test: MIC Test Strip MBL (imipenem, imipenem with EDTA); format: cell-based; conditions: Acinetobacter baumannii, Mueller–Hinton agar, 20 h, 37°C, read-out: Imipenem IMI (MIC, MBL strip)
Method: as §4

[18] = Candidozyma auris, read-out: MIC of DrugB (alone, checkerboard)

- Increase in MIC with ergosterol ([1]; ergosterol 200 µg ml^−1): five-fold
- MIC ([1]; Candidozyma auris, CBS10913, RPMI, read-out: MIC in the absence of ergosterol): 0.25 mg/L (≈ 0.271 µM)
- MIC against C. auris [2]: 0.25 mg/L (≈ 0.271 µM)
- MIC ([2]; Candidozyma auris): 0.27 µM (≈ 0.25 µg/mL)
- MIC [3]: 0.27 µM (≈ 0.25 µg/mL)
- MIC against C. auris [4]: 0.25 mg/L (≈ 0.271 µM)
Structure (SMILES): C[C@@H]1[C@H](O)[C@@H](C)/C=C/C=C/C=C/C=C/C=C/C=C/C=C/[C@H](O[C@@H]2O[C@H](C)[C@@H](O)[C@H](N)[C@@H]2O)C[C@@H]2O[C@](O)(C[C@@H](O)C[C@@H](O)[C@H](O)CC[C@@H](O)C[C@@H](O)CC(=O)O[C@H]1C)C[C@H](O)[C@H]2C(=O)O [Amphotericin B, reference compound]

- MIC against C. auris [2]: 128 mg/L (≈ 418 µM)
- MIC90 ([2]; Candidozyma auris, C. auris CBS12373 suspension used in the antibiofilm study, read-out: MIC90): 512 mg/L (≈ 1670 µM)
- MIC ([2]; Candidozyma auris): 418 µM (≈ 128 µg/mL)
- MIC [3]: 3.3 µM (≈ 1.01 µg/mL)
- MIC [7, 18]: 128 mg/L
- MIC [8, 18]: 1 mg/L
- MIC against C. auris [4]: 1 mg/L (≈ 3.27 µM)
Structure (SMILES): OC(Cn1cncn1)(Cn1cncn1)c1ccc(F)cc1F [Fluconazole, reference compound]
- Biofilm tolerance factor-inhibition (MBIC/MIC) [5]: 4
- Initial biofilm MBIC ([5]; 4 h adhesion, then 48 h with agent, ≥90% reduction): 2048 µg/mL
- Mature biofilm MBEC ([6]; C. auris CBS12373, 48 h biofilm, then 24 h with agent, MTT, ≥90% reduction): 2048 µg/mL
- Biofilm tolerance factor-eradication (MBEC/MIC) ([6]; C. auris CBS12373, MTT): 4
- Mature biofilm inhibition, blank corrected 570 nm, av. of readings ([6]; agent at 4 (growth control 1.918)): 2.95
- Mature biofilm inhibition, blank corrected 570 nm, av. of readings ([6]; agent at 8 (growth control 1.918)): 2.348
- Mature biofilm inhibition, blank corrected 570 nm, av. of readings ([6]; agent at 16 (growth control 1.918)): 2.232
- Mature biofilm inhibition, blank corrected 570 nm, av. of readings ([6]; agent at 32 (growth control 1.918)): 2.12
- Mature biofilm inhibition, blank corrected 570 nm, av. of readings ([6]; agent at 64 (growth control 1.918)): 2.186
- Mature biofilm inhibition, blank corrected 570 nm, av. of readings ([6]; agent at 128 (growth control 1.918)): 0.95
- Mature biofilm inhibition, blank corrected 570 nm, av. of readings ([6]; agent at 256 (growth control 1.918)): 0.345
- Mature biofilm inhibition, blank corrected 570 nm, av. of readings ([6]; agent at 512 (growth control 1.918)): 0.145
- Mature biofilm inhibition, blank corrected 570 nm, av. of readings ([6]; agent at 1024 (growth control 1.918)): 0.104
- Mature biofilm inhibition, blank corrected 570 nm, av. of readings ([6]; agent at 2048 (growth control 1.918)): 0.008
- FICDrugB ([7]; in combination with TM8): 0.0625
- MF of antibiotic (modulation factor) ([7]; in combination with TM8 (0.5× MIC)): 16
- FICDrugB ([8]; in combination with TM8): 0.0625
- MF of antibiotic (modulation factor) ([8]; in combination with TM8): 16
- Biofilm tolerance factor-prevention (BPC/MIC) [9]: 8
- Anti-adherence (BPC) ([9]; 2 h adhesion with agent, 48 h growth, ≥90% reduction): 4096 µg/mL

- MIC [10]: 64 mg/L (≈ 214 µM)
- MIC [11]: 8 mg/L (≈ 26.7 µM)
- MIC [12]: 16 mg/L (≈ 53.4 µM)
- MIC [13]: 64 mg/L (≈ 214 µM)
- MIC [14]: 16 mg/L (≈ 53.4 µM)
- MIC [15]: 128 mg/L (≈ 428 µM)
- MIC [16]: 96 mg/L (≈ 321 µM)
- MIC [17]: 48 mg/L (≈ 160 µM)
Structure (SMILES): C[C@@H](O)[C@H]1C(=O)N2C(C(=O)O)=C(SCCN=CN)C[C@H]12 [Imipenem, imipenem]
